{"source": "patent US20160160189A1", "about": "“Truncated Constructs of RIPK3 and Related Uses” (ST. JUDE CHILDREN'S RESEARCH HOSPITAL, priority 2013, published 2016)", "key": {"[1]": {"system": "NIH-3T3 cells stably expressing RIPK3-1xFv", "assay": "AP1-induced RIPK3 dimerization cell death, IncuCyte imaging", "assay_type": "cell-based, murine", "conditions": "AP1 alone, absence of TNF; depended on AP1 concentration", "source_text": "Fv domains rapidly dimerize in response to AP1 treatment that facilitated an investigation of the protein-protein interactions involved in RIPK3 activation and necroptosis (27a). For example, an Fv domain was appended to a C-terminus of RIPK3, that is adjacent to the RHIM domain, in an effort to mimic in situ RHIM-dependent interactions that define RIPK3 activation. RIPK3-1xFv was expressed in NIH-3T3 cells, a cell line that lacks endogenous RIPK3 expression and is therefore unresponsive to TNF-induced necroptosis. See, FIGS. 13A and 13B. Cell death responses of NIH-3T3 cells were quantified by construct expression over time using the IncuCyte imaging system, which allows precise quantification of cell death with high temporal resolution. For example, representative images were acquired from an IncuCyte Imager (data not shown). These images were NIH-3T3 cells stably expressing RIPK3-1xFV, treated with 10 nM AP1 (see FIG. 1B for a quantified graphical representation of this cell death). One set of images show a field of these cells undergoing RIPK3-dependent cell death; the media contains the cell impermeable DNA binding dye Sytox Green, which marks cells that have lost membrane integrity in green. Another set of images depicts the same image set, following analysis by the IncuCyte software package. This software counts each green (dead) cell in each image; counted cells are surrounded by purple halos. Each trace shown in this manuscript depicts data averaged from at least 3 independently treated wells of cells, each of which is imaged in at least 4 separate fields. Each experiment shown is representative of at least 3 separate replicates. All experiments on stably transduced cells is representative of at least three separate replicates performed on each of at least two distinct, independently-derived stable lines.\nIn the examples below, the following compounds were used: Recombinant murine TNF (Peprotech 315-01A) was used at 1 ng/ml unless otherwise specified; AP1 (Now commercialized by Clontech as “B/B Homodimerizer,” catalog #635059) was dissolved in ethanol to a concentration of 100 μM, then diluted in culture media to a final concentration of 30 nM unless otherwise indicated. zVAD (SM 13 Biochemicals SMFMK001) was dissolved in DMSO to a concentration of 50 mM, then diluted to 50 μM in culture media; Necrostatin-1(Sigma N9037-10MG) was dissolved in DMSO to a concentration of 30 mM, then diluted to 30 μM in culture media; TNFR-Fc (Fisher 430-RI-050) was used at a final concentration of 200 ng/ml; Shield drug was a kind gift of Dr. Tom Wandless and was used at a final concentration of 1 μM. SiGenome SMARTpool siRNAs were purchased from Dharmacon/Fisher. Pools targeting murine MLKL(M-061420-01), murine RIPK1 (M-040150-01), and murine caspase-8 (M-043044-01), as well as a non-targeting “scramble” pool(D-001206-14), were used. Two microliters of a 50 μM stock of these siRNAs were delivered to cells in 6-well format using Lipofectamine siRNA-Max reagent (Life Technologies 13778150) according to the manufacturer's instructions. Forty-eight hours later, these cells were re-plated into 24-well format for cell death assays, or harvested for western blot analysis of knockdowns.\nThese constructs were transduced into NIH-3T3 cells using standard protocols for helper-dependent retroviral transduction. Transduced cells were selected for 5 days in 1 μg/ml puromycin, then grown to confluence and sorted twice for homogenous GFP expression. […]"}, "[2]": {"biological_target": "FKBPs with a single amino acid substitution, Phe36Val (Fv) (Homo sapiens, UniProt P62942, F37V)", "sequence (P62942 whole entry F37V)": "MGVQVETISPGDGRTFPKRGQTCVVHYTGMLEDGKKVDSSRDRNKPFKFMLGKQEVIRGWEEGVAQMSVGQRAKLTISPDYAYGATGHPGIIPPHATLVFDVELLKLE", "conditions": "FKBP Phe36Val (Fv); cited from earlier work"}, "wild type FKBP": {"biological_target": "wild type FKBP (Homo sapiens, UniProt P62942)", "sequence (P62942 whole entry)": "as the sequence (P62942 whole entry F37V) above, with V37F counted along it", "conditions": "relative to Phe36Val FKBP; cited from earlier work"}, "cells": {"system": "cells", "conditions": "cited from earlier work"}, "mice [3]": {"system": "mice", "conditions": "delivered intravenously; cited from earlier work"}, "[4]": {"conditions": "compared with AP1510; cited from earlier work"}, "splenocyte proliferation": {"system": "splenocyte proliferation", "conditions": "relative to rapamycin; cited from earlier work"}, "mice [5]": {"system": "mice", "conditions": "mouse, in vivo; cited from earlier work"}, "[6]": {"conditions": "serial dilution in (aqueous) culture medium; cited from earlier work"}, "[7]": {"system": "NIH-3T3 cells stably expressing RIPK3-1xFv", "assay": "TNF-induced necroptosis, IncuCyte imaging", "assay_type": "cell-based, murine", "conditions": "TNF plus caspase inhibitor zVAD", "procedure": "Expression of RIPK3-1xFv sensitized these cells to necroptosis induced by the combination of TNF and a caspase inhibitor (zVAD) in a manner analogous to that observed in Jax cells, a murine fibroblast line that expresses endogenous RIPK3. See, FIG. 13C. […]\nResulting images were analyzed using the software package supplied with the IncuCyte imager, which allows precise analysis of the number of Sytox Green or Yoyo-3 positive cells present in each image. For each experiment, a minimum of three separate wells were treated with each experimental condition, and a minimum of 4 image fields were assessed per well. Percent cell death was calculated by treating a minimum of three distinct wells in each experiment with 100 nM of the cell permeable fluorescent dye Syto Green (S7559), which allows quantification of the total number of cells present in each field. […]"}, "RIPK3 complexes": {"system": "RIPK3 complexes", "assay": "DSS crosslinking of necrosome complexes resolved by western blotting", "assay_type": "cell-based, murine", "conditions": "DSS crosslinking, western blot", "procedure": "A confluent monolayer of the indicated cells was incubated with the appropriate treatment for 30 minutes at 37 degrees. Cells were lysed in a modified, Tris-free NP40 buffer (30 mM HEPES pH 7.4, 150 mM NaCl, and 1% NP40) without protease inhibitors. Protein lysate was quantified according to standard BCA assay (Pierce) and fifty micrograms of each sample was treated with 0.1 mM DSS crosslinking agent (Thermo Scientific, #21658) for 30 minutes at room temperature; the reaction was quenched by the addition of Tris-HCl pH 7.2 to a final concentration of 50 mM for 15 minutes. Crosslinked samples were analyzed by Western blot as described above, using the anti-2A primary antibody for detection."}, "[8]": {"system": "NIH-3T3 cells expressing RIPK3-2xFv", "assay": "AP1-induced RIPK3 oligomerization cell death, IncuCyte imaging", "assay_type": "cell-based, murine", "conditions": "compared with RIPK3-1xFv", "source_text": "Consequently, two Fv domains were attached to the C-terminus of RIPK3, creating a RIPK3-2xFv construct, with the goal of promoting AP1-induced crosslinking and oligomerization independent of the RHIM domain. See, FIG. 12A. […] Compare, FIGS. 16A and 15A, respectively. […] Cells expressing this RHIM-deficient RIPK3^ΔC-2xFv construct were nonresponsive to TNF+zVAD, previously reported to be dependent on RIPK1 RHIM/RIPK3 RHIM interactions. See, FIG. 13G. […] See, FIG. 16C and FIG. 16D, respectively. […] See, FIG. 16E. […] See, FIG. 16F.\nCell death assays were carried out using a 2-color IncuCyte Zoom in-incubator imaging system (Essen Biosciences.) Briefly, this system allows fully automated imaging of cells at set intervals in phase contrast as well as both red and green fluorescent channels. Cell death assays were carried out by treating cells with death-inducing compounds in 24 well tissue culture vessels (100,000 cells/well), in the presence of 100 nM of the cell-impermeable DNA binding fluorescent dyes Sytox Green (Life Technologies 57020) or Yoyo-3 (Y3606), which are excluded from healthy cells but rapidly enter dying cells upon membrane permeabilization, in a manner analogous to propidium iodide.\nResulting images were analyzed using the software package supplied with the IncuCyte imager, which allows precise analysis of the number of Sytox Green or Yoyo-3 positive cells present in each image. For each experiment, a minimum of three separate wells were treated with each experimental condition, and a minimum of 4 image fields were assessed per well. Percent cell death was calculated by treating a minimum of three distinct wells in each experiment with 100 nM of the cell permeable fluorescent dye Syto Green (S7559), which allows quantification of the total number of cells present in each field. Dead cell events acquired via Sytox Green or Yoyo-3 staining were divided by this total cell number to yield percent cell death at each timepoint. Error bars represent standard deviation from the mean of a minimum of three independent wells. Each result depicted is representative of at least 4 distinct experiments, each of which contained at least 3 technical replicates."}, "[9]": {"system": "RIPK3 necrosome complex (RIPK1, caspase-8)", "assay": "Anti-FLAG immunoprecipitation of necrosome complexes", "assay_type": "cell-based, murine", "conditions": "AP1 30 minutes", "procedure": "Immunoprecipitation of necrosome complexes were carried out using rabbit anti-FLAG antibodies, and TruBlot IP reagents (Rockland Immunochemicals) to eliminate non-specific signals from immunoglobulin heavy and light chains. Briefly, cell lines were treated as indicated and lysed in NP40 buffer (30 mM Tris, 150 mM NaCl, and 1% NP40) supplemented with protease inhibitors. Twenty micrograms of each sample were reserved for “input,” while 500 μg of total protein from each sample were immunoprecipitated with 0.5 μg antibody conjugated to 30 μL TruBlot anti-Rabbit IgG beads Immunocomplexes were washed 4 times in NP40 buffer, eluted by boiling, then run on western blot. Western blots were analyzed using standard primary antibodies, but TruBlot anti-Rabbit and anti-Mouse HRP-conjugated 14 secondary antibodies were used. A standard anti-Rat-HRP secondary was used to detect caspase-8."}}, "data": [{"molecule": "CC[C@H](C(=O)N1CCCC[C@H]1C(=O)O[C@H](CCc1ccc(OC)c(OC)c1)c1cccc(OCC(=O)NCC(CNC(=O)COc2cccc([C@@H](CCc3ccc(OC)c(OC)c3)OC(=O)[C@@H]3CCCCN3C(=O)[C@@H](CC)c3cc(OC)c(OC)c(OC)c3)c2)CN(C)C)c1)c1cc(OC)c(OC)c(OC)c1", "note": "[AP1]", "values": [{"measurement": "RIPK3 activation and necroptosis upon AP1 addition", "setting": "[1]", "result": "limited RIPK3 activation and necroptosis"}]}, {"molecule": "CC[C@H](C(=O)N1CCCC[C@H]1C(=O)O[C@H](CCc1ccc(OC)c(OC)c1)c1cccc(OCC(=O)NCC(CNC(=O)COc2cccc([C@@H](CCc3ccc(OC)c(OC)c3)OC(=O)[C@@H]3CCCCN3C(=O)[C@@H](CC)c3cc(OC)c(OC)c(OC)c3)c2)CN(C)C)c1)c1cc(OC)c(OC)c(OC)c1", "note": "[AP20187]", "values": [{"measurement": "affinity", "setting": "[2]", "result": "subnanomolar"}, {"measurement": "lower affinity to the wild type protein", "setting": "wild type FKBP", "result": 1000, "unit": "fold"}, {"measurement": "toxicity to cells", "setting": "cells", "result": "non-toxic"}, {"measurement": "doses with maximal effects", "setting": "mice [3]", "result": "0.5 to 10", "unit": "mg/kg"}, {"measurement": "pharmacokinetic properties", "setting": "[4]", "result": "better pharmacokinetic properties than AP1510"}]}, {"molecule": "AP21967", "values": [{"measurement": "less immunosuppressive than rapamycin", "setting": "splenocyte proliferation", "result": "greater than 1000 fold"}, {"measurement": "non-toxic concentration to cells", "setting": "cells", "result": "up to 1 μM"}, {"measurement": "non-toxic dose in mice", "setting": "mice [5]", "result": "up to 30 mg/kg"}, {"measurement": "highest concentration ensuring complete solubility", "setting": "[6]", "result": "≤ 5", "unit": "µM"}]}, {"molecule": "RIPK3-1xFv: murine RIPK3 fused to a single copy of mutated FKBP (F36V), Fv domain, at the C-terminus", "values": [{"measurement": "sensitization to necroptosis induced by TNF and zVAD by construct expression", "setting": "[7]", "result": "sensitized"}, {"measurement": "RIPK3 complexes formed by construct after dimerizer (AP1) treatment", "setting": "RIPK3 complexes", "result": "present in a combination of dimers and larger oligomeric complexes"}]}, {"molecule": "RIPK3-2xFv: RIPK3 with two Fv domains attached to the C-terminus", "values": [{"measurement": "necroptotic response to AP1", "setting": "[8]", "result": "faster and more robust necroptotic response"}, {"measurement": "RIPK3 complexes formed by construct after dimerizer (AP1) treatment", "setting": "RIPK3 complexes", "result": "large molecular weight RIPK3 complexes were observed"}, {"measurement": "necrosome formation / interaction with RIPK1 and caspase-8 by construct", "setting": "[9]", "result": "interaction with RIPK1 and caspase-8, regardless of the presence of zVAD or Nec1"}]}]}
